Test results reported in article PMC5628141 (Molecular cancer therapeutics, 2017).

Biological target: T1, androgen receptor DNA binding domain (AR-DBD) (Rattus norvegicus, UniProt P15207, C552A)
T1 sequence (P15207 550-637 C552A): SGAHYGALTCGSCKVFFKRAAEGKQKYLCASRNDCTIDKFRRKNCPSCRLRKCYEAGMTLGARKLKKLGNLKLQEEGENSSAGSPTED
Experiment: isothermal titration calorimetry

Brc1cn(-c2csc(N3CCOCC3)n2)c(Br)n1 [VPC-14449, 4-(4-(2,4-bromo-1H-imidazol-1-yl)thiazol-2-yl)morpholine]
Kd: ~64 µM
